Measurements as given in patent US20100278932A1, “POLYMER MICELLES CONTAINING SN-38 FOR THE TREATMENT OF CANCER” (Intezyne Technologies, Incorporated, priority 2009, published 2010).
Structures can show the parent of a compound that is named as a salt.

Tests used:
[1] = Pharmacokinetics in cannulated rats; assay type: in vivo; details: 5 mg/kg (SN-38 equivalent mass) fast IV bolus, SN-38 in plasma, IT-141 of Example 40
[2] = cited from earlier work

Row | AUC [1] [hours*μg SN-38/mL] | Compound | solubility in aqueous solutions [2]
1 | 0.26 | CCc1c2c(nc3ccc(OC(=O)N4CCC(N5CCCCC5)CC4)cc13)-c1cc3c(c(=O)n1C2)COC(=O)[C@]3(O)CC [CPT-11, irinotecan hydrochloride] | –
2 | – | CCc1c2c(nc3ccc(O)cc13)-c1cc3c(c(=O)n1C2)COC(=O)[C@]3(O)CC [SN-38, 7-ethyl-10-hydroxycamptothecin] | exceedingly insoluble
